Source: patent US20050112573A1, “Method of detecting toxic substance” (priority 2001, published 2005)

Tested on: yeast genes (level of expressed mRNA)
Assay: DNA chip analysis of expressed mRNA of yeast genes after 2 h culture with a toxic chemical substance
Format: cell-based, Saccharomyces cerevisiae S288C
Protocol: Yeast (Saccharomyces cerevtisiae S288C (α SUC2mal mel gap2 CUP1)) were cultured at 25° C. on YPD medium (yeast extract 1%, polypepton 2%, glucose 2%). One of toxic chemical substances was added to the cell at logarithmic growth phase, and the cell was further cultured for two hours. Cell was cultured without any chemical substance in the same condition, and was used as control. Concentrations of the chemical substances were defined to inhibit the growth of the yeast but not lead to death.
After the completion of cultivation, the culture was centrifuged to collect the cells. To the cells, sodium acetate buffer (50 mM sodium acetate, 10 mM EDTA, 1% SDS) was added, and the mixture was shaken at 65° C. for five minutes, followed by returning to room temperature, and obtaining the supernatant, which procedure was repeated two times. To the supernatant, ½ amount of a solution of phenol/chloroform was added, and the mixture was centrifuged to give a supernatant, which was added with an equal amount of chloroform, and the mixture was centrifuged to give a supernatant. To the supernatant, an equal amount of isopropanol containing 0.3 M sodium acetate was added, and the mixture was allowed to stand at room temperature for 30 minutes, after which the mixture was centrifuged to give a sediment of the whole RNAs. Seventy % ethanol was added to the sediment, and the mixture was again centrifuged to give a sediment, which was then dried and dissolved in water. mRNA was isolated from the whole RNAs as followings. In view of the fact that a poly A chain is attached to the 3′ terminus of mRNA, a polynucleotide having a poly T structure which was immobilized on the surface of latex beads was used to trap the mRNA, and then the mRNA was washed and eluted with spine column (Oligotex-dT30<Super>mRNA Purification Kit, Takara). Reverse transcription of the mRNA was conducted with a reverse transcriptase (Super Script II Reverse Transcriptase; catalogue No. 18064-014, GibcoBRL) using fluorescence-labeled nucleotides to give cDNAs that were introduced with Cy3-dUTP or Cy5-dUTP during the reverse transcription.
The labeled cDNAs were dissolved in TE buffer (10 mM Tris-HCl/1 mM EDTA, pH8.0), and the solution was dropped on the DNA chip containing the whole genes of yeast (DNA Chip Research Inc. Japan) so that the cDNAs were hybridized on the DNA chip at 65° C. for over 12 hours. The fluoresces intensity of the DNA chip was read with a scanner, and the ratio relative to the fluorescence intensity resulting from the absence of chemical substance was estimated as the following, which is shown in Tables 1 to 9: [formula]
In the Tables, “Intensity” indicated in the rightmost column is a value of the level of expressed mRNA of each gene in control cells as divided by the average level of the expressions of the whole genes.

CCCCC[C@H](O)CC(=O)CCc1ccc(O)c(OC)c1 [(13), gingerol]
level of expressed mRNA in the presence of chemical substance/in its absence (gene YAL012W): 1.1 | The level of expressed mRNA in the presence of chemical substance/absence: YAL014C (gene YAL014C): 1.5 | The level of expressed mRNA in the presence of chemical substance/absence: YAL017W (gene YAL017W): 2.2 | The level of expressed mRNA in the presence of chemical substance/absence: YAL018C (gene YAL018C): 1.3 | level of expressed mRNA in the presence of chemical substance/in its absence (gene YAL038W): 1.8 | level of expressed mRNA in the presence of chemical substance/in its absence (gene YAL044C): 1.1 | The level of expressed mRNA in the presence of chemical substance/absence: YAL049C (gene YAL049C): 1.6 | level of expressed mRNA in the presence of chemical substance/in its absence (gene YAL054C): 1.8 | The level of expressed mRNA in the presence of chemical substance/absence: YAR047C (gene YAR047C): 1.4 | The level of expressed mRNA in the presence of chemical substance/absence: YAR064W (gene YAR064W): 1.1 | level of expressed mRNA in the presence of chemical substance/in its absence (gene YAR071W): 0.3 | level of expressed mRNA in the presence of chemical substance/in its absence (gene YBL001C): 1.0 | The level of expressed mRNA in the presence of chemical substance/absence: YBL044W (gene YBL044W): 0.7 | The level of expressed mRNA in the presence of chemical substance/absence: YBL100C (gene YBL100C): 0.9 | The level of expressed mRNA in the presence of chemical substance/absence: YBR012C (gene YBR012C): 2.1 | The level of expressed mRNA in the presence of chemical substance/absence: YBR013C (gene YBR013C): 2.0 | level of expressed mRNA in the presence of chemical substance/in its absence (gene YBR014C): 0.9 | level of expressed mRNA in the presence of chemical substance/in its absence (gene YBR023C): 0.5 | level of expressed mRNA in the presence of chemical substance/in its absence (gene YBR029C): 1.7 | level of expressed mRNA in the presence of chemical substance/in its absence (gene YBR035C): 1.8 | level of expressed mRNA in the presence of chemical substance/in its absence (gene YBR050C): 1.3 | The level of expressed mRNA in the presence of chemical substance/absence: YBR051W (gene YBR051W): 1.2 | The level of expressed mRNA in the presence of chemical substance/absence: YBR063C (gene YBR063C): 1.7 | The level of expressed mRNA in the presence of chemical substance/absence: YBR066C (gene YBR066C): 0.6 | level of expressed mRNA in the presence of chemical substance/in its absence (gene YBR068C): 2.2 | level of expressed mRNA in the presence of chemical substance/in its absence (gene YBR111C): 1.6 | The level of expressed mRNA in the presence of chemical substance/absence: YBR124W (gene YBR124W): 0.9 | level of expressed mRNA in the presence of chemical substance/in its absence (gene YBR126C): 2.1 | The level of expressed mRNA in the presence of chemical substance/absence: YBR129C (gene YBR129C): 1.3 | level of expressed mRNA in the presence of chemical substance/in its absence (gene YBR145W): 2.0 | The level of expressed mRNA in the presence of chemical substance/absence: YBR162C (gene YBR162C): 0.7 | level of expressed mRNA in the presence of chemical substance/in its absence (gene YBR183W): 1.4 | level of expressed mRNA in the presence of chemical substance/in its absence (gene YBR222C): 1.6 | The level of expressed mRNA in the presence of chemical substance/absence: YBR255W (gene YBR255W): 1.4 | The level of expressed mRNA in the presence of chemical substance/absence: YBR281C (gene YBR281C): 1.2 | The level of expressed mRNA in the presence of chemical substance/absence: YBR287W (gene YBR287W): 3.4 | level of expressed mRNA in the presence of chemical substance/in its absence (gene YBR299W): 0.7 | level of expressed mRNA in the presence of chemical substance/in its absence (gene YCL009C): 1.6 | The level of expressed mRNA in the presence of chemical substance/absence: YCL042W (gene YCL042W): 7.5 | The level of expressed mRNA in the presence of chemical substance/absence: YCL044C (gene YCL044C): 1.7 | The level of expressed mRNA in the presence of chemical substance/absence: YCL056C (gene YCL056C): 1.3 | level of expressed mRNA in the presence of chemical substance/in its absence (gene YCL064C): 1.6 | The level of expressed mRNA in the presence of chemical substance/absence: YCR007C (gene YCR007C): 1.5 | level of expressed mRNA in the presence of chemical substance/in its absence (gene YCR037C): 1.3 | level of expressed mRNA in the presence of chemical substance/in its absence (gene YCR048W): 1.3 | level of expressed mRNA in the presence of chemical substance/in its absence (gene YCR098C): 1.4 | level of expressed mRNA in the presence of chemical substance/in its absence (gene YDL022W): 1.5 | The level of expressed mRNA in the presence of chemical substance/absence: YDL046W (gene YDL046W): 1.5 | The level of expressed mRNA in the presence of chemical substance/absence: YDL089W (gene YDL089W): 1.9 | The level of expressed mRNA in the presence of chemical substance/absence: YDL173W (gene YDL173W): 1.7 | The level of expressed mRNA in the presence of chemical substance/absence: YDL193W (gene YDL193W): 1.4 | The level of expressed mRNA in the presence of chemical substance/absence: YDL233W (gene YDL233W): 1.8 | level of expressed mRNA in the presence of chemical substance/in its absence (gene YDR009W): 1.2 | level of expressed mRNA in the presence of chemical substance/in its absence (gene YDR019C): 1.0 | The level of expressed mRNA in the presence of chemical substance/absence: YDR071C (gene YDR071C): 1.3 | The level of expressed mRNA in the presence of chemical substance/absence: YDR078C (gene YDR078C): 1.1 | The level of expressed mRNA in the presence of chemical substance/absence: YDR090C (gene YDR090C): 0.8
